“And” between values parts separate entries of the source, which are not always exact repeats. Equal values may be shown once.
Key:
[1] = Functional CPE-based assay to measure dose dependent changes in cell viability from drug treatment in Vero E6 miRFP670 cells (cotreated with P-gp inhibitor, CP100356). Cells are treated with antiviral candidates that have been serially diluted. Cytotoxicity is reported via analysis of MTS assays in uninfected cells. The assay has been performed by KU Leuven.; assay type: toxicity, Vero C1008; settings: chlorocebus sabaeus, p-gp concentration 500 nM
[2] = Functional assay to measure dose dependent changes in cell viability from drug treatment in Vero E6 miRFP670 cells (cotreated with P-gp inhibitor, CP100356) that are infected with Dengue virus type 2 New Guinea C. […] Cytotoxicity is reported via via analysis of DAPI count using high-content imager. The assay has been performed by KU Leuven.; assay type: toxicity, cell-based, Vero C1008; settings: chlorocebus sabaeus, p-gp concentration 500 nM
[3] = Vero E6 miRFP670 cells, with CP100356 (P-gp inhibitor, concentration not stated)
[4] = with CP100356 (P-gp inhibitor, concentration not stated)

Structure (SMILES)	CC50 [1, 3] [µM]	CC50 [2, 4] [µM]	CC50 ([1]; vero c1008)	CC50 ([2]; vero c1008)
N#Cc1cccc(-c2nc3c(C(=O)Nc4ccc5c(c4)CNC5)cc(Cl)cc3[nH]2)c1	6.67	> 50		
Cc1cccc(-c2nc3c(C(=O)Nc4ccc5c(c4)CNC5)cc(F)cc3[nH]2)c1	2.76	0.838		
O=C(Nc1ccc2c(c1)CNC2)c1cc(F)cc2c1CCC2	33	> 50		
O=C(Nc1ccc2c(c1)CNC2)c1cccc2cn[nH]c12	47.8	> 50		
O=C(Nc1ccc2c(c1)CNC2)c1cc(Br)cc2c1nc1n2CCCC1	0.847	1.27		
O=C(Nc1ccc2c(c1)CN[C@H]2CC1CC1)c1cc(F)cc2[nH]ncc12	11.8	18.7		
O=C(Nc1cc2c(c(C3=CCOCC3)c1)CNC2)c1cc(F)cc2[nH]ncc12	> 50	> 50		
O=C(Nc1cc2c(c(C3=CCS(=O)(=O)CC3)c1)CNC2)c1cc(F)cc2[nH]ncc12	> 50	> 50		
NCc1ccc(-c2csc3cc(C(=O)Nc4ccc5c(c4)CNC5)ccc23)cc1	31.9	4.14		
O=C(NCc1cccnc1)[C@H](Nc1ccc2c(c1)CNC2)c1cc(Cl)cc2[nH]ncc12	8.32	> 50		
O=C(Nc1ccc2c(c1)CNC2)c1cccc2nc(O)ccc12	36.5	> 50		
O=C(Nc1ccc2c(c1)CNC2)c1cc(F)cc(-c2cnc(C3CC3)s2)c1	19.7	16.4		
CC(C)NC(=O)[C@H](Nc1ccc2c(c1)CNC2)c1cc(Cl)cc2[nH]c(-c3ccccc3)nc12			5.66 µM and 9.23 µM and 13.7 µM	23.2 µM and 7.47 µM and 13.6 µM
O=C(NCCC1CC1)[C@H](Nc1ccc2c(c1)CNC2)c1cc(Cl)cc(C2CC2)c1	11.8	16.7		
O=C(Nc1ccc2c(c1)CNC2)c1cccc2[nH]c(C(F)(F)F)cc12	47.3	> 50		
O=C(Nc1ccc2c(c1)CNC2)c1cc(Cl)cc2c1NCCC2	6.83	24.8		
O=C(NC1CCOCC1)[C@H](Nc1ccc2c(c1)CNC2)c1cc(Cl)cc2[nH]ncc12	> 50	> 50		
Cc1cc(-c2cc(F)cc(C(=O)Nc3ccc4c(c3)CNC4)c2)[nH]n1	> 50	> 50		
O=C1Cc2cc(C(=O)Nc3ccc4c(c3)CNC4)ccc2N1		> 50	8.74 µM and > 50 µM	
N[C@H]1Cc2ccc(NC(=O)c3cccc4c3CC(=O)N4)cc2C1	> 50	> 50		
N#Cc1ccc(-c2nc3c(C(=O)Nc4ccc5c(c4)CNC5)cc(F)cc3[nH]2)cc1	> 50	> 50		
CC(C)CNC(=O)[C@H](Nc1ccc2c(c1)CNC2)c1cc(Cl)cc2[nH]ncc12	> 50	17		

Structure (SMILES)	CC50 [1, 3] [µM]	CC50 [2, 4] [µM]	CC50 ([1]; vero c1008)	CC50 ([2]; vero c1008)
O=C(Nc1ccc2c(c1)CNC2)c1cccc2c(C3CNC3)n[nH]c12	> 50	> 50		
O=C(Nc1ccc2c(c1)CNC2)c1cc(Cl)cc2[nH]c(-c3c[nH]c(=O)c(Br)c3)nc12	> 50	14.3		
N#Cc1cc2c(cc1NC(=O)c1cc(F)cc3[nH]ncc13)CNC2	> 50	> 50		
C[C@H]1C(=O)Nc2ccc(C(=O)Nc3ccc4c(c3)CNC4)cc21	> 50	> 50		
O=C(Nc1ccc2c(c1)CNC2)c1cc(Cl)cc2[nH]c(-c3ccnn3C3CC3)nc12	1.78	11.7		
FC(F)(F)Oc1cc(Cl)cc2c(Cc3ccc(-c4nnn[nH]4)cc3)c[nH]c12	30.6	11.1		
N#CCc1cc(NC(=O)c2cc(F)cc3[nH]ncc23)cc2c1CNC2	> 50	> 50		
NCc1cccc(-c2csc3cc(C(=O)Nc4ccc5c(c4)CNC5)ccc23)c1	5.68	3.57		
Cc1ncc(-c2cc(F)cc(C(=O)Nc3ccc4c(c3)CNC4)c2)o1	11.9	12.5		
O=C(Nc1ccc2c(c1)CNC2)c1cc(F)cc(-c2cccnc2)c1	15.4	> 50		
O=C(Nc1ccc2c(c1)CNC2)c1cc(Cl)cc2c1cnn2C[C@H]1CCCO1	26.9	37.1		
Cn1c(=O)[nH]c2c(C(=O)Nc3ccc4c(c3)CNC4)cc(Br)cc21	34.2	> 50		
O=C(Nc1ccc2c(n1)CNC2)c1cc(Cl)cc2[nH]ncc12	> 50	> 50		
C=CC[C@H]1NCc2cc(NC(=O)c3cc(F)cc4c3CC(=O)N4)ccc21	> 50	> 50		
COc1cc(-c2cc(NC(=O)c3cc(F)cc4[nH]ncc34)cc3c2CNC3)ccn1	> 50	> 50		
O=C(NCC(F)F)[C@H](Nc1cnc2c(c1)CNC2)c1cc(Cl)cc(C2CC2)c1	> 50	> 50		
O=C(Nc1ccc2c(c1)CNC2)c1cc(F)cc(-c2c[nH]c(=O)c(F)c2)c1	> 50	25.4		
O=C(NCC(F)F)[C@H](Nc1ccc2c(c1)CNC2)c1cc(F)cc2[nH]ncc12	> 50	> 50		
O=C(Nc1ccc2c(c1)CNC2)c1cc(F)cc2[nH]c(-c3cccc(F)c3)nc12	3.69	2.47		
O=C(Nc1ccc2c(c1)CNC2)c1cc(Br)cc2[nH]c(=O)[nH]c12	> 50	4.79		
O=C(Nc1cc2c(c(-c3ccnnc3)c1)CNC2)c1cc(Cl)cc2[nH]ncc12	> 50	25.8		
NCc1csc2cc(C(=O)Nc3ccc4c(c3)CNC4)ccc12	> 50	5.74		

Structure (SMILES)	CC50 [1, 3] [µM]	CC50 [2, 4] [µM]	CC50 ([1]; vero c1008)	CC50 ([2]; vero c1008)
O=C(Nc1ccc2c(c1)CNC2)c1ccc2c(C3=CCNCC3)csc2c1	47.1	18.8		
O=C(Nc1ccc2c(c1)CNC2)c1cc(F)cc2[nH]c(-c3ccc(F)cc3)nc12	6.47	4.33		
Clc1cc(CNc2ccc3c(c2)CNC3)c2cn[nH]c2c1	29.8	21.4		
O=C(Nc1cc2c(c(C3=CC[C@H](O)CC3)c1)CNC2)c1cc(Cl)cc2[nH]ncc12	> 50	> 50		
Cc1nc2c(C(=O)Nc3ccc4c(c3)CNC4)cc(Cl)cc2[nH]1	4.77	6.02		
O=C(Nc1cc(Br)c2c(c1)CNC2)c1cc(F)cc2[nH]ncc12	> 50	> 50		
O=C(Nc1ccc2c(c1)CNC2)c1cc(F)cc(-c2cn[nH]c2)c1	> 50	37.2		
CCOCCNC(=O)[C@H](Nc1ccc2c(c1)CNC2)c1cc(Cl)cc2[nH]ncc12	> 50	9.94		
CNC(=O)[C@H](Nc1ccc2c(c1)CNC2)c1cc(Cl)cc2[nH]ncc12	> 50	5.53		
CCCn1cc2c(C(=O)Nc3ccc4c(c3)CNC4)cc(Cl)cc2n1	17.4	21.5		
O=C(Nc1cc2c(cc1C1CC1)CNC2)c1cc(F)cc2[nH]ncc12	> 50	10.1		
O=C(Nc1ccc2c(c1)CNC2)c1cc(Cl)cc2cn[nH]c12	> 50	5		
O=C(Nc1cnc2c(c1)CNC2)c1cc(F)cc2[nH]ncc12	> 50	> 50		
O=C1Cc2c(cccc2C(=O)Nc2ccc3c(c2)CCNCC3)N1	> 50	> 50		
O=C(Nc1ccc2c(c1)CNC2)c1cc(F)cc2nn(-c3ccccn3)nc12			7.85 µM and 1.85 µM	7.3 µM and 1.92 µM
C=CC[C@H]1NCc2cc(NC(=O)c3cc(Cl)cc4[nH]ncc34)ccc21	11.8	3.12		
O=C(Nc1cc2c(cc1Br)CNC2)c1cc(Cl)cc2[nH]ncc12	1.85	13.5		
Cc1cccc(-c2nc3c(C(=O)Nc4ccc5c(c4)CNC5)cc(Cl)cc3[nH]2)c1O	3.03	9	3.17 µM	8.94 µM
Cc1ccc(-c2nc3c(C(=O)Nc4ccc5c(c4)CNC5)cc(F)cc3[nH]2)cc1	1.42	3		
O=C(Nc1ccc2c(c1)CNC2)c1cc(F)cc2[nH]c(-c3cnc(C4CC4)o3)nc12		1.86	3.86 µM and 1.41 µM	2.55 µM

— ChEMBL document CHEMBL5661955, “ASAP - In vitro cytotoxicity” (2024)
